Experimental data reported in US20050209278A1, “Piperidinyl- and piperazinyl-sulfonylmethyl hydroxamic acids and their use as protease inhibitors” (priority 2002, published 2005).

Experiments:
[1] = target: T1, MMP-13 (Homo sapiens, UniProt P45452); assay: In vitro MMP inhibition, Ki determination (fluorogenic substrate II); type: biochemical; settings: value outside parentheses; read-out: MMP-13 Ki
T1 construct: made in house; host or cells: baculovirus / insect cells
Procedure, shortened: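 Ki determined with human recombinant MMP-13, baculovirus-expressed as proenzyme and activated with APMA. Fluorogenic MCA/Dpa substrate II at 4 μM (at or below Km) with low enzyme in Tris buffer pH 7.5 with CaCl2. Incubation was 1 h at room temperature, with fluorescence read at 330/420 nm.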

[2] = target: T2, MMP-2 (Homo sapiens, UniProt P08253); assay: as above; type: biochemical; settings: value outside parentheses; read-out: MMP-2 Ki
T2 construct: made in house; host or cells: MMP-2-transfected p2AHT2 cells
T2 sequence (P08253 110-660): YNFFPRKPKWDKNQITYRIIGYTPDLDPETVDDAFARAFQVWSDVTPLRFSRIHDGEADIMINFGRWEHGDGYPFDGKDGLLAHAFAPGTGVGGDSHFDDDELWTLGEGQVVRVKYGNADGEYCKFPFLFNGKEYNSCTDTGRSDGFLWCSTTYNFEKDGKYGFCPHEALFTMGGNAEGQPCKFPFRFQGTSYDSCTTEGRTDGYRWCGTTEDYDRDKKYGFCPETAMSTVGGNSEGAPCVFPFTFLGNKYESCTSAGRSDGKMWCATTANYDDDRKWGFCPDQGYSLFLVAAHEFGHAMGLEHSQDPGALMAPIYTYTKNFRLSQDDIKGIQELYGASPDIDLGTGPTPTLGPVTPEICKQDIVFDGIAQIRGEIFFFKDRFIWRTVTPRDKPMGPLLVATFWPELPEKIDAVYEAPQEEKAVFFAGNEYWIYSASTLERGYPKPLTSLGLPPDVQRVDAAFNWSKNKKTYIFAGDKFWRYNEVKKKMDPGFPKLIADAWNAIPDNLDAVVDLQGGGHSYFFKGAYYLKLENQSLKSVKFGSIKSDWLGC

Row | Compound | Ki [1] | Ki [2]
1 | CCCCOc1ccc(N2CCN(S(=O)(=O)C3(C(=O)NO)CCN(C(C)=O)CC3)CC2)cc1 [Example 282] | 0.27 nM | 0.5 nM
2 | CCCCOc1ccc(N2CCN(S(=O)(=O)C3(C(=O)NO)CCN(c4ccc(O)nn4)CC3)CC2)cc1 [Example 283] | 0.19 nM | 0.37 nM
3 | CCCCOc1ccc(N2CCN(S(=O)(=O)C3(C(=O)NO)CCN(CCOC)CC3)CC2)c(F)c1 [Example 284] | 0.12 nM | 0.81 nM
4 | CCCCOc1ccc(N2CCN(S(=O)(=O)C3(C(=O)NO)CCN(Cc4ccccc4)CC3)CC2)cc1F [Example 285] | 2.06 nM | 1.55 nM
5 | CCCCOc1ccc(N2CCN(S(=O)(=O)C3(C(=O)NO)CCNCC3)CC2)cc1F [Example 286] | 5.97 nM | 5.17 nM
6 | COCCN1CCC(C(=O)NO)(S(=O)(=O)N2CCN(c3ccc(Oc4ccccc4)cc3)CC2)CC1 [Example 287] | 3.33 nM | 9.44 nM
7 | CCCCOc1ccc(N2CCN(S(=O)(=O)C3(C(=O)NO)CCN(C(=O)CN)CC3)CC2)cc1 [Example 292] | 0.98 nM | 1.74 nM
8 | CCCCOc1ccc(N2CCN(S(=O)(=O)C3(C(=O)NO)CCN(Cc4cccnc4)CC3)CC2)cc1F [Example 293] | 0.313 nM | 0.486 nM
9 | CCCCOc1ccc(N2CCN(S(=O)(=O)C3(C(=O)NO)CCN(c4ccc(C)cc4)CC3)CC2)cc1 [Example 295] | 9.13 nM | 8.76 nM
10 | CCCCOc1ccc(N2CCN(S(=O)(=O)C3(C(=O)NO)CCN(c4ccc(C)cc4)CC3)CC2)cc1F [Example 296] | 9.22 nM | 6.73 nM
11 | COCCOc1ccc(N2CCN(S(=O)(=O)C3(C(=O)NO)CCN(C4CC4)CC3)CC2)cc1F [Example 297] | 1.4 nM | 1.36 nM
12 | CCCCOc1ccc(N2CCN(S(=O)(=O)C3(C(=O)NO)CCN(CC4CC4)CC3)CC2)cc1 [Example 298] | 0.702 nM | 3.27 nM
13 | Cc1cc(N2CCN(S(=O)(=O)C3(C(=O)NO)CCOCC3)CC2)ccc1OC(C)C [Example 299] | 3.04 nM | 22.5 nM
14 | CS(=O)(=O)c1ccc(N2CCN(S(=O)(=O)C3(C(=O)NO)CCOCC3)CC2)cc1 [Example 300] | 42.7 nM | 67.1 nM
15 | CCCCOc1ccc(N2CCN(S(=O)(=O)C3(C(=O)NO)CCN(C4CC4)CC3)CC2)cc1 [Example 301] | 0.23 nM | 0.88 nM
16 | C#CCN1CCC(C(=O)NO)(S(=O)(=O)N2CCN(c3ccc(OCCCC)cc3)CC2)CC1 [Example 303] | 0.46 nM | 1.68 nM
17 | CCCCCc1ccc(C2CCN(S(=O)(=O)C3(C(=O)NO)CCOCC3)CC2)nc1 [Example 305] | 0.136 nM | 0.407 nM
18 | O=C(NO)C1(S(=O)(=O)N2CCC(c3ccc(Br)cn3)CC2)CCOCC1 [Example 306] | 0.863 nM | 0.444 nM
19 | CCCCc1ccc(C2CCN(S(=O)(=O)C3(C(=O)NO)CCOCC3)CC2)nc1 [Example 307] | 0.654 nM | 0.505 nM
20 | O=C(NO)C1(S(=O)(=O)N2CCC(c3ccc(-c4ccc(F)cc4F)cn3)CC2)CCOCC1 [Example 308] | 4.26 nM | 6.36 nM
21 | COCCN1CCC(C(=O)NO)(S(=O)(=O)N2CCC(c3ccc(CCC(F)(F)F)cc3)CC2)CC1 [Example 309] | 0.355 nM | 0.328 nM
22 | COCCN1CCC(C(=O)NO)(S(=O)(=O)N2CCC(c3ccc(CCCC(F)(F)F)cc3)CC2)CC1 [Example 310] | 0.268 nM | 0.919 nM
23 | COCCN1CCC(C(=O)NO)(S(=O)(=O)N2CCC(c3ncc(CC(C)C)s3)CC2)CC1 [Example 311] | 1.56 nM | 103 nM
24 | COCCN1CCC(C(=O)NO)(S(=O)(=O)N2CCC(c3ccc(CCC(F)(F)C(F)(F)F)cc3)CC2)CC1 [Example 312] | 0.2 nM | 0.52 nM
